Literature values in patent US20050079222A1, “Production of nanoparticles from methyl vinyl ether and maleic anhydride for the administration of hydrophilic pharmaceuticals, more particularly of puric and pyrimidinic bases” (priority 2001, published 2005).

Test system: tumors
Conditions: versus 5-fluorouracile

For `O=c1[nH]c(=O)n([C@@H]2O[C@H](CO)[C@@H](O)[C@H]2O)cc1F` [5-fluorouridine, 2,4-dioxo-5-fluoropyrimidine riboside], the “antitumoral activity, times more potent than 5-fluorouracile and other derivatives” value is listed as 100 times.
